# According to ChEMBL document CHEMBL5674850, “ASAP - Solubility” (2024):
# Several values for one entry are separate records, joined by “and”; a condition that tells them apart may be missing. Equal values may be shown once.
# Assay: Kinetic solubility of compound by measuring concentration at pH 7.4 in saturated PBS buffer by UV LCMS/MS using calibration curves. The assay has been performed by Enamine biological services, Bienta Ltd.The protocol is publicly available: dx.doi.org/10.17504/protocols.io.j8nlk8y41l5r/v1
# Assay type: physicochemical
# Settings: PBS buffer
row,solubility kinetic [µM],SMILES
1,181,O=C(Nc1ccc2c(c1)CNC2)c1cc(Cl)cc2ccncc12
2,126,O=C(Nc1cc(Cl)cc(C(=O)Nc2cccc(C3CCNCC3)c2)c1)OCc1ccccc1
3,89,NCc1cccc(NC(=O)c2cc(Cl)cc(NC(=O)OCc3ccccc3)c2)c1
4,185,O=C(Nc1ccc2c(c1)CNC2)c1cc(F)cc(-c2cn[nH]c2)c1
5,332,NCc1cccc(NC(=O)c2cccn3cc(CN4CCCC4)nc23)c1
6,309,Cn1cc2c(C(=O)Nc3ccc4c(c3)CNC4)cc(F)cc2n1
7,131,O=C(O)Cn1ncc2cc(-c3cc(Cl)cc(NC(=O)OCc4ccccc4)c3)ccc21
8,6,O=C(Nc1ccc2c(c1)CNC2)c1cc(F)cc2[nH]c(-c3ccc(F)cc3)nc12
9,56,NCc1cccc(NC(=O)CN(C(=O)OCc2ccccc2)c2ccc(OCc3ccccc3)cc2)c1
10,392,CCOc1cccc(-c2ccc(S(=O)(=O)Nc3ccc(Cl)cc3C(=O)O)cc2)c1
11,25,CNC(=O)c1cc(Cl)ccc1NS(=O)(=O)c1ccc(Oc2ccccc2Cl)cc1
12,119,c1ccc2sc(C3CCN(Cc4c[nH]c5ccccc45)CC3)nc2c1
13,360,O=C(O)COc1cccc(NC(=O)c2cc(Cl)cc(NC(=O)OCc3ccccc3)c2)c1
14,14,NCc1cccc(NC(=O)c2cc(OCc3ccccc3)ccc2CNC(=O)OCc2ccccc2)c1
15,392,Nc1ccncc1-c1cc(F)cc(C(=O)Nc2ccc3c(c2)CNC3)c1
16,178,CNC(=O)[C@H](Nc1ccc2c(c1)CNC2)c1cc(Cl)cc2[nH]c(-c3ccccc3)nc12
17,320,COCCNC(=O)[C@H](Nc1ccc2c(c1)CNC2)c1cc(Cl)cc(C2CC2)c1

# Further lines, the compound ahead of its results:
row,SMILES,solubility kinetic [µM]
1,O=C(Nc1cc(Br)c2c(c1)CNC2)c1cc(F)cc2[nH]ncc12,4
2,Cc1cc([C@H](Nc2ccc3c(c2)CNC3)C(=O)NCC(F)F)cc(C(F)(F)F)c1,≥ 400
3,O=C(Nc1cc2c(c(C3=CCS(=O)(=O)CC3)c1)CNC2)c1cc(F)cc2[nH]ncc12,141
4,CCCCNC(=O)[C@H](Nc1ccc2c(c1)CNC2)c1cc(Cl)cc(C2CC2)c1,379
5,NCc1cccc(NC(=O)C[C@@H](NC(=O)OCc2ccccc2)c2ccc(OCc3ccccc3)cc2)c1,17
6,CNC(=O)[C@H](Nc1ccc2c(c1)CNC2)c1cc(Cl)cc(C2CC2)c1,358
7,Cc1c(C(=O)Nc2cc(-c3cccnc3)ccn2)cc(C2CC2)n1C,176
8,CNC(=O)[C@H](Nc1cccc(-c2nn[nH]n2)c1)c1cc(Cl)cc2[nH]ncc12,347
9,CN(c1ccc2c(c1)CNC2)[C@H](C(=O)NCC(F)F)c1cc(Cl)cc(C2CC2)c1,172
10,NCc1cccc(NC(=O)c2cc(Cl)cc(CN)c2)c1,375
11,O=C(Nc1cc(Cl)cc(-c2ccc3[nH]c(C(=O)O)cc3c2)c1)OCc1ccccc1,356
12,COc1cc(Cl)cc([C@H](Nc2ccc3c(c2)CNC3)C(=O)NCC(F)F)c1,≥ 400
13,Cn1c(=O)[nH]c2c(C(=O)Nc3ccc4c(c3)CNC4)cc(Br)cc21,161
14,O=C(Nc1cc(Cl)cc(C(=O)Nc2ccc3c(c2)CNC3)c1)OCc1ccccc1,35
15,N#C[C@H](Nc1cccc(-c2nn[nH]n2)c1)c1cc(Cl)cc(NC(=O)OCc2ccccc2)c1,344
16,O=C(Nc1cc(Cl)cc(C(=O)Nc2cccc(-c3nnn[nH]3)c2)c1)OCc1ccccc1,65
17,CNC(=O)[C@H](Nc1cc(CN)cc(-c2nn[nH]n2)c1)c1cc(Cl)cc(C2CC2)c1,352
18,CO[C@H]1C[C@H](n2ncc3c(C(=O)Nc4ccc5c(c4)CNC5)cc(Cl)cc32)C1,340
19,O=C(Nc1ccc2c(c1)CNC2)c1ccc2[nH]cc(C3CCNCC3)c2c1,377

# Same assay, conditions: buffer
row,SMILES,Solubility (mean)
1,O=C(NCC(F)F)[C@H](Nc1ccc2c(c1)CNC2)c1cc(Cl)cc(C2CC2)c1,367 µM and 326 µM
2,O=C(Nc1ccc2c(c1)CNC2)c1cc(F)cc(-c2cn[nH]c2)c1,184 µM

# Same assay, conditions: buffer, ph 7.5
row,SMILES,Solubility (mean) [µM]
1,O=C(NCC(F)F)[C@H](Nc1ccc2c(c1)CNC2)c1cc(Cl)cc(C2CC2)c1,139
